Measurements taken from PubChem BioAssay (NCI).
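Cultured in 96-well plates, cells were exposed to test compound for 48 hours across five concentrations. TGI marks complete inhibition of growth.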

How the values were obtained:
Assay in all cases: growth of human tumour cells (NCI), 48 h
[1] = test system: 786-0 renal
[2] = test system: A498 renal
[3] = test system: A549 NSCLC
[4] = test system: ACHN renal
[5] = test system: BT-549 breast
[6] = test system: CAKI-1 renal
[7] = test system: COLO 205 colon
[8] = test system: DU-145 prostate
[9] = test system: EKVX NSCLC
[10] = test system: HCC-2998 colon
[11] = test system: HCT-116 colon
[12] = test system: HCT-15 colon
[13] = test system: HL-60(TB) leukemia
[14] = test system: HOP-62 NSCLC
[15] = test system: HOP-92 NSCLC
[16] = test system: HS 578T breast
[17] = test system: HT29 colon
[18] = test system: IGROV1 ovarian
[19] = test system: K-562 leukemia
[20] = test system: KM12 colon
[21] = test system: LOX IMVI melanoma
[22] = test system: M14 melanoma
[23] = test system: MALME-3M melanoma
[24] = test system: MCF7 breast
[25] = test system: MDA-MB-231 breast
[26] = test system: MDA-MB-435
[27] = test system: MDA-N
[28] = test system: MOLT-4 leukemia
[29] = test system: NCI-H226 lung
[30] = test system: NCI-H23 lung
[31] = test system: NCI-H460 lung
[32] = test system: NCI-H522 lung
[33] = test system: NCI/ADR-RES ovarian
[34] = test system: OVCAR-3 ovarian
[35] = test system: OVCAR-4 ovarian
[36] = test system: OVCAR-5 ovarian
[37] = test system: OVCAR-8 ovarian
[38] = test system: PC-3 prostate
[39] = test system: RPMI-8226 leukemia
[40] = test system: RXF 393 renal
[41] = test system: SF-268 CNS
[42] = test system: SF-295 CNS
[43] = test system: SF-539 CNS
[44] = test system: SK-MEL-28 melanoma
[45] = test system: SK-MEL-5 melanoma
[46] = test system: SN12C renal
[47] = test system: SNB-19 CNS
[48] = test system: SNB-75 CNS
[49] = test system: SR leukemia
[50] = test system: SW-620 colon
[51] = test system: T-47D breast
[52] = test system: TK-10 renal
[53] = test system: U251 CNS
[54] = test system: UACC-257 melanoma
[55] = test system: UO-31 renal
[56] = test system: SK-OV-3 ovarian
[57] = test system: UACC-62 melanoma

CO[C@@H]1C[C@H]2[C@@H]3CC[C@H]([C@H](C)CO)[C@@]3(C)CC[C@@H]2[C@@]2(C)CC[C@H]3C[C@]312
TGI [1]: > 100 µM | TGI [2]: > 100 µM | TGI [3]: > 100 µM | TGI [4]: > 100 µM | TGI [5]: 49.9 µM | TGI [6]: > 100 µM | TGI [7]: 35.3 µM | TGI [8]: > 100 µM | TGI [9]: > 100 µM | TGI [10]: > 100 µM | TGI [11]: > 100 µM | TGI [12]: > 100 µM | TGI [13]: 47.2 µM | TGI [14]: > 100 µM | TGI [15]: 63.6 µM | TGI [16]: > 100 µM | TGI [17]: 40.8 µM | TGI [18]: > 100 µM | TGI [19]: > 100 µM | TGI [20]: 35.9 µM | TGI [21]: 46.5 µM | TGI [22]: > 100 µM | TGI [23]: > 100 µM | TGI [24]: 47.8 µM | TGI [25]: > 100 µM | TGI [26]: > 100 µM | TGI [27]: > 100 µM | TGI [28]: > 100 µM | TGI [29]: > 100 µM | TGI [30]: > 100 µM | TGI [31]: 74.8 µM | TGI [32]: > 100 µM | TGI [33]: > 100 µM | TGI [34]: > 100 µM | TGI [35]: > 100 µM | TGI [36]: > 100 µM | TGI [37]: > 100 µM | TGI [38]: 92.6 µM | TGI [39]: 58 µM | TGI [40]: > 100 µM | TGI [41]: > 100 µM | TGI [42]: 85.9 µM | TGI [43]: > 100 µM | TGI [44]: > 100 µM | TGI [45]: 78.1 µM | TGI [46]: > 100 µM | TGI [47]: > 100 µM | TGI [48]: > 100 µM | TGI [49]: > 100 µM | TGI [50]: > 100 µM | TGI [51]: > 100 µM | TGI [52]: > 100 µM | TGI [53]: 85.4 µM | TGI [54]: 86.5 µM | TGI [55]: > 100 µM

COc1cc(C)c2c(c1C=O)Oc1c(c(C)c(O)c3c1C(O)OC3=O)OC2=O (stereo not given)
TGI [1]: > 100 µM | TGI [2]: > 100 µM | TGI [3]: > 100 µM | TGI [4]: > 100 µM | TGI [5]: > 100 µM | TGI [6]: > 100 µM | TGI [7]: > 100 µM | TGI [8]: > 100 µM | TGI [9]: > 100 µM | TGI [10]: 44.5 µM | TGI [11]: > 100 µM | TGI [12]: 46.4 µM | TGI [13]: 48.4 µM | TGI [14]: > 100 µM | TGI [15]: > 100 µM | TGI [16]: > 100 µM | TGI [17]: > 100 µM | TGI [18]: 60.9 µM | TGI [20]: 52.3 µM | TGI [21]: > 100 µM | TGI [22]: > 100 µM | TGI [23]: 52.6 µM | TGI [24]: 74 µM | TGI [25]: 68.3 µM | TGI [26]: > 100 µM | TGI [27]: 43.8 µM | TGI [28]: 49.5 µM | TGI [29]: > 100 µM | TGI [30]: 95 µM | TGI [32]: 83.8 µM | TGI [33]: > 100 µM | TGI [34]: > 100 µM | TGI [35]: > 100 µM | TGI [36]: > 100 µM | TGI [37]: > 100 µM | TGI [38]: > 100 µM | TGI [39]: 49.6 µM | TGI [40]: 96.7 µM | TGI [41]: 68 µM | TGI [42]: > 100 µM | TGI [43]: > 100 µM | TGI [44]: > 100 µM | TGI [45]: 61.5 µM | TGI [56]: > 100 µM | TGI [46]: > 100 µM | TGI [47]: 60.4 µM | TGI [48]: > 100 µM | TGI [49]: 60.9 µM | TGI [50]: > 100 µM | TGI [51]: 65.1 µM | TGI [52]: > 100 µM | TGI [53]: > 100 µM | TGI [54]: > 100 µM | TGI [57]: 81.7 µM | TGI [55]: > 100 µM
